The values that follow come from patent publication US11117888B2, “Irreversible inhibitors of pyruvate kinase M2 and the use thereof” (China Medical University, priority 2020, dated 2021).

Molecules are shown by their SMILES.

The test system of one test is H460 lung cancer cells. Description: MTT cell viability assay, H460. Format: cell-based. Particulars: Homo sapiens, NCI-H460, H460 (wild type EGFR), 24 hours. An excerpt:
(§1) Cell lines, cell culture, biochemical reagents, and antibodies. MiaPaCa-2, AsPC-1, and Panc-1 human pancreatic cancer cells, MCF-7 and MDA-MB-231 breast cancer cells, SCC4 and SCC2059 oral cancer cells, PC-3 and LNCaP prostate cancer cells, H157, H460, H1975, PC-9 and H1650 lung cancer cells were obtained from the American Type Culture Collection (ATCC, Manassas, Va.). All these cells were maintained in recommended growth medium (RPMI 1640 or DMEM) supplemented with 10% fetal bovine serum (FBS) (Invitrogen, Carlsbad, Calif., USA) and antibiotics at 37° C. in a humidified incubator containing 5% CO2. For SILAC experiments, PC-9 cells were grown in SILAC DMEM medium (Thermo Fisher) supplemented with 10% dialyzed FBS and 100 μg/mL each of unlabeled L-arginine and L-lysine (light medium) or ^13C/^15N stable isotope-labeled L-arginine and L-lysine (heavy medium). […]
(§2) Cell viability assays. Drug effects on cell viability was assessed by 3-(4,5-dimethylthiazol-2-yl)-2,5-diphenyltetrazolium bromide ([…]) assays. […] The medium was then removed from each well and replaced with DMSO to dissolve the reduced MTT dye for subsequent colorimetric measurement of absorbance at 560 nm. Cell viabilities are expressed as percentages of viable cells relative to the corresponding vehicle-treated control group.
(In general: Tetrazolium dyes change colour on reduction, which living cells bring about.)

The test system of test [1] is pyruvate kinase activity in PC-9 cells. Description: Pyruvate kinase activity assay in PC-9 cells. The conditions noted are these: 0.25 μM, 6 hours, relative to vehicle control. Format: cell-based, human. As to the method:
(§3) Pyruvate kinase activity assays. PC-9 cells were seeded into 6 cm dishes at a concentration of 5×10^5 cells/mL. After 24 hours, cells were treated with 0.25 μM compound 1 or DMSO for 6 hours. The pyruvate kinase activity of compound 1-treated PC-9 and vehicle control cells was measured by using a commercial colorimetric assay kit from BioVision (Milpitas, Calif., USA) according to the manufacturer's protocol. In addition, to verify the specificity of compound 1 toward PKM2 versus PKM1, the inhibition of the kinase activity of recombinant PKM1 (SRP0415, Sigma-Aldrich) and recombinant PKM2 (SAE0021, Sigma-Aldrich) by compound 1 was conducted using the aforementioned assay kit.

The next test deals with H1650 lung cancer cells. Description: MTT cell viability assay, H1650. Format: cell-based. The conditions noted are these: Homo sapiens, NCI-H1650, H1650 (mutant EGFR), 24 hours.
Text: as §1, §2

Another test concerns the target T1, recombinant PKM1 (Homo sapiens, UniProt P14618).
T1 construct: purchased Sigma-Aldrich SRP0415
Description: Recombinant PKM1 kinase activity assay. Format: biochemical. Particulars: after 20 min of exposure. As to the method:
As this cell-based kinase assay could not rule out the involvement of PKM1, we examined the abilities of compound 1 to inhibit the kinase activity of recombinant PKM2 (SAE0021, Sigma-Aldrich) versus recombinant PKM1 (SRP0415, Sigma-Aldrich) using a commercial PKM assay kit. […] In brief, PC-9 cells were exposed to different concentrations of compound 2 in the presence of compound 1 (1 μM) for 1 hour, lysed, and the cell lysates were treated with biotin-azide, followed by streptavidin bead pulldown under the aforementioned conditions. […] The antigen of compound 1 was prepared by coupling this small molecule with cysteine residues of ovalbumin, which was then used for immunization in guinea pigs.
as §3

The subject of test [2] is LNCaP prostate cancer cells. Description: MTT cell viability assay, LNCaP. Type of test: cell-based. Particulars: Homo sapiens, 24 hours.
Text: as §1, §2

In the next test the test system is H157 lung cancer cells. The test can be described thus: MTT cell viability assay, H157. The conditions noted are these: Homo sapiens, NCI-H157, H157 (wild type EGFR), 24 hours. Format: cell-based.
Text: as §1, §2

T1 sequence (P14618 1-531 isoform P14618-2): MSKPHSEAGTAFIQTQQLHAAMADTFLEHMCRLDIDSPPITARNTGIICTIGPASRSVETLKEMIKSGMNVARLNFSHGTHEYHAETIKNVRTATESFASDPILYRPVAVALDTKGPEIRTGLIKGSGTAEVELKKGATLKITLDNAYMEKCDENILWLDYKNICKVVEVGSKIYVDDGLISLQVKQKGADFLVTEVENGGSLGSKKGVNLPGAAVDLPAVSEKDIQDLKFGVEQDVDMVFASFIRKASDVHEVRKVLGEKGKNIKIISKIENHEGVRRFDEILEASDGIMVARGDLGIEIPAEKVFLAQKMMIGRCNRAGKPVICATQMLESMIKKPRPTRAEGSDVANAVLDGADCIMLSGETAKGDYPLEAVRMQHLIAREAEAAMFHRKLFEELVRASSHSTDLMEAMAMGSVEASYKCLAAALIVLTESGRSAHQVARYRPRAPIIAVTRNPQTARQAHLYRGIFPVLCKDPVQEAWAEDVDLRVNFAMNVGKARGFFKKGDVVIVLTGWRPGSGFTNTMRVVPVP

In the case of `C#CC(=O)Nc1ccc(-n2nc(CCC(=O)NC)cc2-c2ccc(-c3ccc(C(F)(F)F)cc3)cc2)cc1` [compound 1, N-(4-(3-(3-(Methylamino)-3-oxopropyl)-5-(4′-(trifluoromethyl)-[1,1′-biphenyl]-4-yl)-1H-pyrazol-1-yl)phenyl)propiolamide], the IC50 in the test on H460 lung cancer cells was 1.5 µM; with H1650 lung cancer cells it was 0.2 µM; in test [2], greater than 2 µM; with H157 lung cancer cells, greater than 2 µM. The “pyruvate kinase activity in cells” value in test [1] was “significantly reduced pyruvate kinase activity”. Further, the “inhibition of kinase activity of recombinant PKM1” value at recombinant PKM1 is listed as “no appreciable inhibition”.

The term IC50 denotes the concentration needed to halve the response being measured. Higher therefore signals a need for much substance.
